Measured values from paper PMC13462928 (Nature Communications, 2026).
pEC50: −log10 of the molar value. Where two headings read alike, the source gives them in different places.

What was measured:
[1] = target: NUDT5 and the respective E3 ligase (Homo sapiens, UniProt P40337+Q9UKK9); experiment: NanoBRET ternary complex formation assay NUDT5 and the respective E3 ligase (VHL or CRBN) in HEK293 cells; type: cell-based; settings: for Ternary complex formation below 1 µM (20 h): HEK293, 20 h; for Ternary complex formation below 1 µM (4 h): HEK293, 4 h
Method: NanoBRET ternary complex assays were performed following the manufacturer’s instructions (Promega). […] After 4 h or 20 h of incubation, a mix of substrate in assay medium was added to each well. Donor and acceptor signals were measured in a PHERAstar FSX or FS plate reader and analyzed by GraphPad Prism (v.9 or v.10). The acceptor/donor ratio was calculated, the no ligand background signal was subtracted, and multiplied by 1000 to yield mBRET units. Data were then normalized to DMSO.

NUDT5 [2] = target: NUDT5 (Homo sapiens, UniProt Q9UKK9); experiment: NanoBRET NUDT5 target engagement (TE) assay in HEK293 cells; type: cell-based; design: expressed in transfected cells; host or cells: HEK293; settings: for EC50: HEK293, 4 h
HAP1 cells = experiment: Titration of NUDT5 degraders and controls against fixed 6-TG (2 µg/mL) in HAP1 cells, cell viability; type: cell-based, human; settings: HAP1, 2 µg/mL 6-TG, 72 h
Method: Cells were counted and adjusted to a density of 25,000 cells/mL in culture medium. […] Plates were sealed with breathable film and incubated at 37 °C with 5% CO₂ for 72 hours. Cell viability was assessed using the CellTiter-Glo Luminescent Cell Viability Assay, following the manufacturer’s protocol (Promega). Luminescence was measured using a PHERAstar FS or FSX plate reader, and data were analyzed using GraphPad Prism software (versions 9 or 10). Results were normalized to the vehicle control (DMSO).

NUDT5 [3] = target: T1, NUDT5 (Homo sapiens, UniProt Q96SW2+Q9UKK9); experiment: Western blot NUDT5 degradation in HAP1 cells; type: cell-based; design: endogenous in cells; host or cells: HAP1; settings: HAP1 cells, Western blot, Fig. 3B
Method: (§1) Pellets were lysed on ice using RIPA buffer (25 mM Tris (pH 7.5), 150 mM NaCl, 1% Igepal, 1% SDS, 0.1% SDC, 1x protease inhibitor (Roche, cOmplete mini, 11836170001), 1x phosphatase (Thermo Scientific, Halt, 78429), 0.1% benzonase (Merck, E1014-5KU)), incubated for 15 min and then centrifuged for 20 min at 4 °C at maximum speed in a table-top centrifuge. […] Membranes were blocked with 6% milk in PBS-T for 1 h at RT, washed, and then incubated with primary antibody diluted in PBS-T supplemented with 0.1% NaN3 overnight at 4 °C. Membranes were incubated with fluorophore-conjugated secondary antibodies, Alexa Fluor 680 anti-rabbit IgG (Life Technologies, A21109), Alexa Fluor 750 anti-mouse IgG (Life Technologies, A21037) diluted 1:5000 in 2% milk PBS-T, washed and imaged with an Odyssey imager (Licor).

HAP1 cell lines = experiment: TH1760/6-TG cell viability assay in HAP1 cell lines; type: cell-based, human; settings: 72 h
Method: After 72 h incubation, cell viability was measured using the CellTiter-Glo assay (Promega). Signals were normalized to the control condition.

NUDT5 [4] = target: T1, NUDT5; experiment: Western blot NUDT5 degradation in HEK293 cells; type: cell-based; settings: 20 h, Western blot
Method: as §1

[5] = read-out: EC50 (µM), TE 4h, Supplementary Table 1
[6] = read-out: EC50 (nM) TE (4h), Supplementary Table 3

Cc1ncsc1-c1ccc(CNC(=O)C2CC(O)CN2C(=O)C(NC(=O)COCCOCCCCCCC(=O)N2CCC(n3nc(-c4ccc(Oc5ccccc5)cc4)c4c(N)ncnc43)CC2)C(C)(C)C)cc1 (centres unmarked) [ASM74]
Ternary complex formation below 1 µM (20 h) ([1]; Supplementary Table 1): No | EC50 (NUDT5 [2]; [5]): > 10 µM

CN1C(=O)CCC(N2C(=O)c3ccc(N4CCN(CC5CCN(C(=O)N6CCN(c7nc8c(c(=O)n(C)c(=O)n8C)n7Cc7nnc(-c8ccc(Cl)c(Cl)c8)o7)CC6)CC5)CC4)cc3C2=O)C1=O (centres unmarked) [dNUDT5nc]
rescue of 6-TG-induced toxicity (HAP1 cells): failed to rescue cell viability | pEC50 (NUDT5 [2]; HEK293 cells, Supplementary Fig. 6B, read-out: NUDT5 NanoBRET target engagement EC50): 7.55 | NUDT5 engagement in live cells (NUDT5 [2]; NanoBRET): engaged their cognate target NUDT5 in live cells | NUDT5 degradation (NUDT5 [3]): preventing NUDT5 degradation

Cn1c(=O)c2c(nc(N3CCN(C(=O)CCOCCOCCNc4cccc5c4C(=O)N(C4CCC(=O)NC4=O)C5=O)CC3)n2Cc2nnc(-c3ccc(Cl)c(Cl)c3)o2)n(C)c1=O (centres unmarked) [ASM68]
Ternary complex formation below 1 µM (20 h) ([1]; Supplementary Table 2): Yes

Cn1c(=O)c2c(nc(N3CCN(CC4CCN(c5cc6c(cc5F)C(=O)N(C5CCC(=O)NC5=O)C6=O)CC4)CC3)n2Cc2nnc(-c3ccc(Cl)c(Cl)c3)o2)n(C)c1=O (centres unmarked) [ASM71]
Ternary complex formation below 1 µM (20 h) ([1]; Supplementary Table 3): No | EC50 (NUDT5 [2]; [6]): 0.017 µM

O=C(c1ccc2[nH]ccc2c1)N1CCN(S(=O)(=O)c2ccc3[nH]c(=O)oc3c2)CC1 [TH1760]
sensitization of cells towards 6-TG (HAP1 cell lines; HAP1 WT, 6-TG 1 µM fixed): sensitized HAP1 WT cells towards 6-TG in a dose-dependent manner | effect on cell viability without 6-TG (HAP1 cell lines; HAP1 cell lines, up to 50 µM): does not affect HAP1 cell viability

Cc1ncsc1-c1ccc(CNC(=O)C2CC(O)CN2C(=O)C(NC(=O)CCOCCOCCOCCC(=O)N2CCN(c3nc4c(c(=O)n(C)c(=O)n4C)n3Cc3nnc(-c4ccc(Cl)c(Cl)c4)o3)CC2)C(C)(C)C)cc1 (centres unmarked) [ASM131]
Ternary complex formation below 1 µM (4 h) ([1]; Supplementary Table 2): No | Ternary complex formation below 1 µM (20 h) ([1]; Supplementary Table 2): No

Cc1ncsc1-c1ccc(CNC(=O)C2CC(O)CN2C(=O)C(NC(=O)CCCCCOCCOCCOCCCCCCN2CCCC(n3nc(-c4ccc(Oc5ccccc5)cc4)c4c(N)ncnc43)C2)C(C)(C)C)cc1 (centres unmarked) [ASM73]
Ternary complex formation below 1 µM (20 h) ([1]; Supplementary Table 1): No | EC50 (NUDT5 [2]; [5]): > 10 µM

Cn1c(=O)c2c(nc(N3CCN(C(=O)CCCCCCOc4cccc5c4C(=O)N(C4CCC(=O)NC4=O)C5=O)CC3)n2Cc2nnc(-c3ccc(Cl)c(Cl)c3)o2)n(C)c1=O (centres unmarked) [ASM136]
Ternary complex formation below 1 µM (4 h) ([1]; Supplementary Table 2): No | Ternary complex formation below 1 µM (20 h) ([1]; Supplementary Table 2): No

Cc1ncsc1-c1ccc(CNC(=O)C2CC(O)CN2C(=O)C(NC(=O)COCCOCCCCCCC(=O)N2CCN(c3nc4c(c(=O)n(C)c(=O)n4C)n3Cc3nnc(-c4ccc(Cl)c(Cl)c4)o3)CC2)C(C)(C)C)cc1 (centres unmarked) [ASM076]
Ternary complex formation below 1 µM (20 h) ([1]; Supplementary Table 2): No | EC50 (NUDT5 [2]; read-out: EC50 (nM) TE (4h), Supplementary Table 2): 2 µM

Cc1ncsc1-c1ccc(CNC(=O)C2CC(O)CN2C(=O)C(NC(=O)COCCOCCCCCCC(=O)N2CCCC(n3nc(-c4ccc(Oc5ccccc5)cc4)c4c(N)ncnc43)C2)C(C)(C)C)cc1 (centres unmarked) [ASM75]
Ternary complex formation below 1 µM (20 h) ([1]; Supplementary Table 1): No | EC50 (NUDT5 [2]; [5]): > 10 µM

Cc1ncsc1-c1ccc(CNC(=O)C2CC(O)CN2C(=O)C(NC(=O)CCCCCOCCCCCOCCCCCCN2CCCC(n3nc(-c4ccc(Oc5ccccc5)cc4)c4c(N)ncnc43)C2)C(C)(C)C)cc1 (centres unmarked) [ASM32]
Ternary complex formation below 1 µM (20 h) ([1]; Supplementary Table 1): No | EC50 (NUDT5 [2]; [5]): > 10 µM

Cn1c(=O)c2c(nc(N3CCN(C(=O)CCCNc4cccc5c4C(=O)N(C4CCC(=O)NC4=O)C5=O)CC3)n2Cc2nnc(-c3ccc(Cl)c(Cl)c3)o2)n(C)c1=O (centres unmarked) [ASM111]
Ternary complex formation below 1 µM (20 h) ([1]; Supplementary Table 2): Yes | effect on NUDT5 protein levels (NUDT5 [4]): no significant effects on NUDT5 protein levels

Nc1ncnc2c1c(-c1ccc(Oc3ccccc3)cc1)nn2C1CCN(CCOCCOCC(=O)Nc2ccc3c(c2)C(=O)N(C2CCC(=O)NC2=O)C3=O)CC1 (centres unmarked) [MT-802, reference compound]
Ternary complex formation below 1 µM (20 h) ([1]; Supplementary Table 1): No | EC50 (NUDT5 [2]; [5]): 1.3 µM

Cn1c(=O)c2c(nc(N3CCN(C(=O)CCCCCCCCNc4cccc5c4C(=O)N(C4CCC(=O)NC4=O)C5=O)CC3)n2Cc2nnc(-c3ccc(Cl)c(Cl)c3)o2)n(C)c1=O (centres unmarked) [ASM133]
Ternary complex formation below 1 µM (4 h) ([1]; Supplementary Table 2): Yes | Ternary complex formation below 1 µM (20 h) ([1]; Supplementary Table 2): Yes

Cn1c(=O)c2c(nc(N3CCN(C(=O)CCCCCCCNc4cccc5c4C(=O)N(C4CCC(=O)NC4=O)C5=O)CC3)n2Cc2nnc(-c3ccc(Cl)c(Cl)c3)o2)n(C)c1=O (centres unmarked) [ASM134]
Ternary complex formation below 1 µM (4 h) ([1]; Supplementary Table 2): Yes | Ternary complex formation below 1 µM (20 h) ([1]; Supplementary Table 2): Yes

Cn1c(=O)c2c(nc(N3CCN(C(=O)CCCCNc4cccc5c4C(=O)N(C4CCC(=O)NC4=O)C5=O)CC3)n2Cc2nnc(-c3ccc(Cl)c(Cl)c3)o2)n(C)c1=O (centres unmarked) [ASM124]
Ternary complex formation below 1 µM (4 h) ([1]; Supplementary Table 2): Yes | Ternary complex formation below 1 µM (20 h) ([1]; Supplementary Table 2): Yes

Nc1ncnc2c1c(-c1ccc(Oc3ccccc3)cc1)nn2[C@@H]1CCCN(C(=O)c2cn(CCOCCOCCOCCNc3cccc4c3C(=O)N(C3CCC(=O)NC3=O)C4=O)nn2)C1 (some centres unmarked) [Compound P13I1, reference compound]
Ternary complex formation below 1 µM (20 h) ([1]; Supplementary Table 1): No | EC50 (NUDT5 [2]; [5]): 8.9 µM

Cn1c(=O)c2c(nc(N3CCN(C(=O)CCCCCCCCOc4cccc5c4C(=O)N(C4CCC(=O)NC4=O)C5=O)CC3)n2Cc2nnc(-c3ccc(Cl)c(Cl)c3)o2)n(C)c1=O (centres unmarked) [ASM135]
Ternary complex formation below 1 µM (4 h) ([1]; Supplementary Table 2): Yes | Ternary complex formation below 1 µM (20 h) ([1]; Supplementary Table 2): Yes

Cn1c(=O)c2c(nc(N3CCN(CC4CCN(c5ccc6c(c5)C(=O)N(C5CCC(=O)NC5=O)C6=O)CC4)CC3)n2Cc2nnc(-c3ccc(Cl)c(Cl)c3)o2)n(C)c1=O (centres unmarked) [ASM70]
Ternary complex formation below 1 µM (20 h) ([1]; Supplementary Table 3): Yes | EC50 (NUDT5 [2]; [6]): 0.042 µM

Cn1c(=O)c2c(nc(N3CCN(CCC4CCN(c5ccc6c(c5)C(=O)N(C5CCC(=O)NC5=O)C6=O)CC4)CC3)n2Cc2nnc(-c3ccc(Cl)c(Cl)c3)o2)n(C)c1=O (centres unmarked) [ASM102]
Ternary complex formation below 1 µM (20 h) ([1]; Supplementary Table 3): Yes | EC50 (NUDT5 [2]; [6]): 0.102 µM

Cn1c(=O)c2c(nc(N3CCN(C(=O)CCCCNC(=O)COc4cccc5c4C(=O)N(C4CCC(=O)NC4=O)C5=O)CC3)n2Cc2nnc(-c3ccc(Cl)c(Cl)c3)o2)n(C)c1=O (centres unmarked) [ASM57]
Ternary complex formation below 1 µM (20 h) ([1]; Supplementary Table 2): No

Cn1c(=O)c2c(nc(N3CCN(CC4CCN(c5ccc6c(c5)C(=O)N(C5CCC(=O)NC5=O)C6=O)C4)CC3)n2Cc2nnc(-c3ccc(Cl)c(Cl)c3)o2)n(C)c1=O (centres unmarked) [ASM105]
Ternary complex formation below 1 µM (20 h) ([1]; Supplementary Table 3): No | EC50 (NUDT5 [2]; [6]): 0.103 µM

Cn1c(=O)c2c(nc(N3CCN(CC4CCN(c5cccc6c5C(=O)N(C5CCC(=O)NC5=O)C6=O)CC4)CC3)n2Cc2nnc(-c3ccc(Cl)c(Cl)c3)o2)n(C)c1=O (centres unmarked) [ASM110]
Ternary complex formation below 1 µM (20 h) ([1]; Supplementary Table 3): No | EC50 (NUDT5 [2]; [6]): 0.061 µM

Cn1c(=O)c2c(nc(N3CCN(C(=O)CCCCCCNc4cccc5c4C(=O)N(C4CCC(=O)NC4=O)C5=O)CC3)n2Cc2nnc(-c3ccc(Cl)c(Cl)c3)o2)n(C)c1=O (centres unmarked) [ASM84]
Ternary complex formation below 1 µM (20 h) ([1]; Supplementary Table 2): Yes

Cn1c(=O)c2c(nc(N3CCN(C(=O)CCOCCNc4cccc5c4C(=O)N(C4CCC(=O)NC4=O)C5=O)CC3)n2Cc2nnc(-c3ccc(Cl)c(Cl)c3)o2)n(C)c1=O (centres unmarked) [ASM137]
Ternary complex formation below 1 µM (4 h) ([1]; Supplementary Table 2): Yes | Ternary complex formation below 1 µM (20 h) ([1]; Supplementary Table 2): Yes | effect on NUDT5 protein levels (NUDT5 [4]): no significant effects on NUDT5 protein levels

Cn1c(=O)c2c(nc(N3CCN(C(=O)CCCCCNc4cccc5c4C(=O)N(C4CCC(=O)NC4=O)C5=O)CC3)n2Cc2nnc(-c3ccc(Cl)c(Cl)c3)o2)n(C)c1=O (centres unmarked) [ASM122]
Ternary complex formation below 1 µM (4 h) ([1]; Supplementary Table 2): Yes | Ternary complex formation below 1 µM (20 h) ([1]; Supplementary Table 2): Yes | effect on NUDT5 protein levels (NUDT5 [4]): no significant effects on NUDT5 protein levels
